# Results published in patent publication US5210193A, “Piperazine derivatives” (American Cyanamid Company, priority 1990, dated 1993).
# Experiments:
# Assay in all cases: in vitro antibacterial MIC, agar plate dilution
# Format in all cases: cell-based
# [1] = system: Staphylococcus Spp saprophiticus VGH 84-50; details: 18 hours, 35° C., read-out: MIC
# Summary of the method: (§1)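 Agar plate dilution on Mueller-Hinton agar, inoculum approximately 10^4 CFU per organism applied with a Steers replicator. MIC (mcg/ml) is the lowest compound concentration inhibiting visible growth after 18 hours at 35° C.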
# [2] = system: Staphylococcus aureus Smith; details: Staphylococcus aureus, 18 h, 35° C., read-out: MIC
# Summary of the method: as §1
# Escherichia coli NAR 311 = details: NAR311, 18 hours, 35° C., read-out: MIC
# Summary of the method: as §1
# [3] = system: Proteus rettgeri CMC 84-41; details: Providencia rettgeri, CMC8441, 18 h, 35° C., read-out: MIC
# Summary of the method: as §1
# [4] = system: Acinetobacter calcoaceticus MOR 84-43; details: MOR8443, 18 hours, 35° C., read-out: MIC
# Summary of the method: as §1
# [5] = system: Enterobacter aerogenes VGH 84-36; details: Klebsiella aerogenes, VGH8436, 18 hours, 35° C., read-out: MIC
# Summary of the method: as §1
# [6] = system: Enterobacter cloacae K 84-10; details: Enterobacter cloacae, K8410, 18 h, 35° C., read-out: MIC
# Summary of the method: as §1
# [7] = system: Staphylococcus epidermidis IO 83-58; details: IO8358, 18 hours, 35° C., read-out: MIC
# Summary of the method: as §1
# [8] = system: Staphylococcus epidermidis CMC 83-135; details: CMC83135, 18 hours, 35° C., read-out: MIC
# Summary of the method: as §1
# [9] = system: Serratia marcescens F 0-35; details: Serratia marcescens, F035, 18 h, 35° C., read-out: MIC
# Summary of the method: as §1
# [10] = system: Escherichia coli PRNT 311; details: PRNT311, 18 hours, 35° C., read-out: MIC
# Summary of the method: as §1
# [11] = system: Staphylococcus aureus VGH 84-46; details: Staphylococcus aureus, VGH8446, 18 h, 35° C., read-out: MIC
# Summary of the method: as §1
# [12] = system: Morganella morganii CMC 84-37; details: Morganella morganii, CMC8437, 18 h, 35° C., read-out: MIC
# Summary of the method: as §1
# [13] = system: Klebsiella pneumoniae MOR 84-4; details: Klebsiella pneumoniae, MOR844, 18 h, 35° C., read-out: MIC
# Summary of the method: as §1
# [14] = system: Pseudomonas aeruginosa VGH 84-4; details: Pseudomonas aeruginosa, VGH844, 18 h, 35° C., read-out: MIC
# Summary of the method: as §1
# Klebsiella pneumoniae AD = details: Klebsiella pneumoniae, 18 h, 35° C., read-out: MIC
# Summary of the method: as §1
# [15] = system: Klebsiella oxytoca MOR 84-28; details: MOR8428, 18 hours, 35° C.
# Summary of the method: as §1
# [16] = system: Staphylococcus aureus VGH 84-45; details: Staphylococcus aureus, VGH8445, 18 h, 35° C., read-out: MIC
# Summary of the method: as §1
# [17] = system: Staphylococcus aureus CMC 83-128; details: CMC83128, 18 hours, 35° C., read-out: MIC
# Summary of the method: as §1
# [18] = system: Streptococcus faecalis VGH 84-65; details: Enterococcus faecalis, VGH8465, 18 h, 35° C., read-out: MIC
# Summary of the method: as §1
# [19] = system: Escherichia coli CMC 84-11; details: Escherichia coli, CMC8411, 18 h, 35° C., read-out: MIC
# Summary of the method: as §1
# [20] = system: Staphylococcus aureus ATTC 29213; details: Staphylococcus aureus, ATTC29213, 18 h, 35° C., read-out: MIC
# Summary of the method: as §1
# [21] = system: Staphylococcus aureus CMC 83-127; details: Staphylococcus aureus, CMC83127, 18 h, 35° C., read-out: MIC
# Summary of the method: as §1
# [22] = system: Escherichia coli CMC 84-16; details: Escherichia coli, CMC8416, 18 h, 35° C., read-out: MIC
# Summary of the method: as §1
# [23] = system: Enterobacter cloacae VGH 84-37; details: Enterobacter cloacae, VGH8437, 18 h, 35° C., read-out: MIC
# Summary of the method: as §1
# [24] = system: Morganella morganii VGH 84-11; details: VGH8411, 18 hours, 35° C., read-out: MIC
# Summary of the method: as §1
# [25] = system: Streptococcus faecalis ATTC 29212; details: Enterococcus faecalis, ATTC29212, 18 hours, 35° C., read-out: MIC
# Summary of the method: as §1
# [26] = system: Pseudomonas aeruginosa LL-1244; details: Pseudomonas aeruginosa, LL1244, 18 h, 35° C., read-out: MIC
# Summary of the method: as §1
# [27] = system: Serratia marcescens K 84-18; details: Serratia marcescens, K8418, 18 h, 35° C., read-out: MIC
# Summary of the method: as §1
# [28] = system: Escherichia coli ATCC 25922; details: Escherichia coli, ATCC25922, 18 h, 35° C., read-out: MIC
# Summary of the method: as §1
# [29] = system: Staphylococcus epidermidis VGH 84-40; details: VGH8440, 18 hours, 35° C., read-out: MIC
# Summary of the method: as §1
Structure (SMILES),MIC [1] [µg/mL],MIC [2] [µg/mL],MIC (Escherichia coli NAR 311) [µg/mL],MIC [3] [µg/mL],MIC [4] [µg/mL],MIC [5] [µg/mL],MIC [6] [µg/mL],MIC [7] [µg/mL],MIC [8] [µg/mL],MIC [9] [µg/mL],MIC [10] [µg/mL],MIC [12] [µg/mL],MIC [13] [µg/mL],MIC (Klebsiella pneumoniae AD) [µg/mL],MIC [15] [µg/mL],MIC [16] [µg/mL],MIC [17] [µg/mL],MIC [18] [µg/mL],MIC [19] [µg/mL],MIC [20] [µg/mL],other results
"CCn1cc(C(=O)O)c(=O)c2cc(F)c(N3CCNC(c4ccc(C)s4)C3)cc21 (centres unmarked) [Example 37, 1-Ethyl-6-fluoro-1,4-dihydro-7-[3-(5-methyl-2-thienyl)-1-piperazinyl]-4-oxo-3-quinolinecarboxylic acid]",2,0.5,16,1,8,1,1,0.5,0.5,2,2,0.5,2,2,1,0.12,0.25,4,1,0.5,MIC [11]: 0.5 µg/mL; MIC [14]: 16 µg/mL; MIC [21]: 0.12 µg/mL; MIC [22]: 0.5 µg/mL; MIC [23]: 1 µg/mL; MIC [24]: 1 µg/mL; MIC [25]: 4 µg/mL; MIC [26]: 64 µg/mL; MIC [27]: 2 µg/mL; MIC [28]: 1 µg/mL; MIC [29]: 0.25 µg/mL
"CCn1cc(C(=O)O)c(=O)c2cc(F)c(N3CCNC(CNC)C3)cc21.Cl.Cl (centres unmarked) [Example 53, 1-Ethyl-6-fluoro-1,4-dihydro-7-[3-[(methylamino)methyl]-1-piperazinyl]-4-oxo-3-quinolinecarboxylic acid, dihydrochloride]",4,1,> 128,32,> 128,16,8,4,2,64,16,32,32,64,> 128,16,2,32,8,16,MIC [11]: 8 µg/mL; MIC [14]: > 128 µg/mL; MIC [21]: 1 µg/mL; MIC [22]: 4 µg/mL; MIC [23]: 32 µg/mL; MIC [24]: 32 µg/mL; MIC [25]: 32 µg/mL; MIC [26]: > 128 µg/mL; MIC [27]: 128 µg/mL; MIC [28]: 16 µg/mL; MIC [29]: 4 µg/mL
"CCn1cc(C(=O)O)c(=O)c2cc(F)c(N3CCN(C)C(c4sc5ccccc5c4C)C3)cc21 (centres unmarked) [Example 54, 1-Ethyl-6-fluoro-1,4-dihydro-7-[4-methyl-3-(3-methyl-benzo[b]thien-2-yl)-1-oiperazinyl]-4-oxo-3-quinolinecarboxylic acid]",> 256,64,> 256,> 256,> 256,> 256,> 256,> 256,> 256,> 256,> 256,> 256,> 256,> 256,> 256,256,64,> 256,> 256,256,MIC [11]: > 256 µg/mL; MIC [14]: > 256 µg/mL; MIC [21]: 32 µg/mL; MIC [22]: > 256 µg/mL; MIC [23]: > 256 µg/mL; MIC [24]: > 256 µg/mL; MIC [25]: > 256 µg/mL; MIC [26]: > 256 µg/mL; MIC [27]: > 256 µg/mL; MIC [28]: > 256 µg/mL; MIC [29]: > 256 µg/mL
"CN1CCN(c2cc3c(cc2F)c(=O)c(C(=O)O)cn3C2CC2)CC1c1ccsc1 (centres unmarked) [Example 66, 1-Cyclopropyl-6-fluoro-1,4-dihydro-4-oxo-7-[4-methyl-3-(3-thienyl)-1-piperazinyl]-3-quinolinecarboxylic acid]",0.06,0.06,0.5,1,8,2,0.12,0.06,0.06,2,0.5,0.5,0.5,0.25,0.12,0.03,0.03,0.25,0.12,0.25,MIC [11]: 0.06 µg/mL; MIC [21]: 0.03 µg/mL; MIC [22]: 0.06 µg/mL; MIC [23]: 0.25 µg/mL; MIC [24]: 1 µg/mL; MIC [25]: 0.5 µg/mL; MIC [26]: 16 µg/mL; MIC [27]: 2 µg/mL; MIC [28]: 0.12 µg/mL; MIC [29]: 0.06 µg/mL
"O=C(O)c1cn(-c2ccc(F)cc2)c2cc(N3CCNC(c4ccco4)C3)c(F)cc2c1=O (centres unmarked) [Example 67, 6-Fluoro-1-(4-fluorophenyl)-7-[3-(2-furanyl)-1-piperazinyl]-1,4-dihydro-4-oxo-3-quinolinecarboxylic acid]",0.25,0.03,2,1,0.12,1,0.25,0.06,0.06,2,0.25,1,0.5,0.25,0.12,0.03,0.06,1,0.12,0.06,MIC [11]: 0.03 µg/mL; MIC [21]: 0.03 µg/mL; MIC [22]: 0.12 µg/mL; MIC [23]: 0.25 µg/mL; MIC [24]: 1 µg/mL; MIC [25]: 0.5 µg/mL; MIC [26]: 4 µg/mL; MIC [27]: 1 µg/mL; MIC [28]: 0.12 µg/mL; MIC [29]: 0.06 µg/mL
"CCn1cc(C(=O)O)c(=O)c2c(F)c(F)c(N3CCSCC3)c(F)c21 [Example 89, 1-Ethyl-5,6,8-trifluoro-1,4-dihydro-4-oxo-7-(4-thiomorpholinyl)-3-quinolinecarboxylic acid]",4,0.25,128,4,2,8,2,0.5,0.5,2,2,4,4,2,2,0.25,1,32,1,0.5,MIC [14]: 32 µg/mL; MIC [21]: 0.5 µg/mL; MIC [22]: 2 µg/mL; MIC [23]: 4 µg/mL; MIC [24]: 2 µg/mL; MIC [25]: 8 µg/mL; MIC [26]: 64 µg/mL; MIC [27]: 2 µg/mL; MIC [28]: 1 µg/mL
